Data published in US12583858B2 (Genentech, Inc., priority 2015, dated 2026).

target: T1, TDO2 (Homo sapiens, UniProt P48775); assay: TDO2 cell assay (NFK GreenScreen, SW48 cells); type: cell-based; settings: SW48 cells (high TDO expressing), 200 uM tryptophan, 24 hours; Table 3; read-out: TDO2 Cell Fluor EC50
T1 construct: decreased levels of NFK in SW48 cells (high TDO expressing cells)
T1 sequence (P48775 whole entry): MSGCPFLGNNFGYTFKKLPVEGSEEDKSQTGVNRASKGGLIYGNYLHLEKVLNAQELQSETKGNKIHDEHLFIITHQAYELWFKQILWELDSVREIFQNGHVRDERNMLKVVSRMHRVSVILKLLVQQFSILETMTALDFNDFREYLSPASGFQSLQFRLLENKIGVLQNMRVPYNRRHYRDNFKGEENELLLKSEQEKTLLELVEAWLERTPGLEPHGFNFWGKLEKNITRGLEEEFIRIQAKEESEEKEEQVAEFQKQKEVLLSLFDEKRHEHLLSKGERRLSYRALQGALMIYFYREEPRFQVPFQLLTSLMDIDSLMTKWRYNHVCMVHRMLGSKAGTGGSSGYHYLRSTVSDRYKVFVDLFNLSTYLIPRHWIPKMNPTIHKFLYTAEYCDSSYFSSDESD

| SMILES | EC50 [nM] |
| --- | --- |
| OC1C(C2c3ccccc3-c3cncn32)CC12CCOCC2 (single isomer, unassigned) [Example 57c] | 400 |
| OC1C(C2c3ccccc3-c3cncn32)CC12CCOCC2 (single isomer, unassigned) [Example 57d] | > 25000 |
| OC1C(C2c3ccccc3-c3cncn32)CC12CCOCC2 (single isomer, unassigned) [Example 57e] | 77 |
| OC1C(C2c3ccccc3-c3cncn32)CC12CCOCC2 (single isomer, unassigned) [Example 57f] | 730 |
| OC1C(C2c3ccccc3-c3cncn32)CC12CCOCC2 (single isomer, unassigned) [Example 57g] | 210 |
| OC1C(C2c3ccccc3-c3cncn32)CC12CCOCC2 (single isomer, unassigned) [Example 57h] | > 25000 |
| N#CCN1CCC(O)C(C2c3ccccc3-c3cncn32)C1 (single isomer, unassigned) [Example 58a] | 360 |
| N#CCN1CCC(O)C(C2c3ccccc3-c3cncn32)C1 (single isomer, unassigned) [Example 58b] | > 25000 |
| N#CCN1CCC(O)C(C2c3ccccc3-c3cncn32)C1 (single isomer, unassigned) [Example 58c] | 20000 |
| N#CCN1CCC(O)C(C2c3ccccc3-c3cncn32)C1 (single isomer, unassigned) [Example 58d] | > 25000 |
| Cc1cc2c(cn1)C(O)C(C1c3ccccc3-c3cncn31)C2 (single isomer, unassigned) [Example 59c] | 1600 |
| Cc1cc2c(cn1)C(O)C(C1c3ccccc3-c3cncn31)C2 (single isomer, unassigned) [Example 59d] | > 25000 |
| NC(=O)c1ccc2c(c1)CCC(C1c3ccccc3-c3cncn31)C2O (single isomer, unassigned) [Example 60a] | 480 |
| NC(=O)c1ccc2c(c1)CCC(C1c3ccccc3-c3cncn31)C2O (single isomer, unassigned) [Example 60b] | 4100 |
| NC(=O)c1ccc2c(c1)CCC(C1c3ccccc3-c3cncn31)C2O (single isomer, unassigned) [Example 60d] | 740 |
| OC1COCCC1C1c2c(Cl)cccc2-c2cncn21 (single isomer, unassigned) [Example 69-1a] | > 25000 |
| OC1COCCC1C1c2c(Cl)cccc2-c2cncn21 (single isomer, unassigned) [Example 69-1b] | > 25000 |

The remaining lines, values ahead:

| EC50 [nM] | SMILES |
| --- | --- |
| 570 | CC1(O)CCOCC1C1c2ccccc2-c2cncn21 (single isomer, unassigned) [Example 61a] |
| 2600 | CC1(O)CCOCC1C1c2ccccc2-c2cncn21 (single isomer, unassigned) [Example 61b] |
| 9100 | CC1(O)CCOCC1C1c2ccccc2-c2cncn21 (single isomer, unassigned) [Example 61c] |
| 21000 | CC1(O)CCOCC1C1c2ccccc2-c2cncn21 (single isomer, unassigned) [Example 61d] |
| 10000 | N#Cc1ccc2c(c1)CCC(C1c3ccccc3-c3cncn31)C2O (single isomer, unassigned) [Example 62a] |
| 310 | N#Cc1ccc2c(c1)CCC(C1c3ccccc3-c3cncn31)C2O (single isomer, unassigned) [Example 62b] |
| 6600 | N#Cc1ccc2c(c1)CCC(C1c3ccccc3-c3cncn31)C2O (single isomer, unassigned) [Example 62c] |
| 82 | N#Cc1ccc2c(c1)CCC(C1c3ccccc3-c3cncn31)C2O (single isomer, unassigned) [Example 62d] |
| 520 | N#Cc1ccc2c(c1)CCC(C1c3ccccc3-c3cncn31)C2O (single isomer, unassigned) [Example 62e] |
| 2500 | N#Cc1ccc2c(c1)CCC(C1c3ccccc3-c3cncn31)C2O (single isomer, unassigned) [Example 62f] |
| 14000 | N#Cc1ccc2c(c1)CCC(C1c3ccccc3-c3cncn31)C2O (single isomer, unassigned) [Example 62g] |
| 19000 | OC1c2ncccc2CCC1C1c2ccccc2-c2cncn21 (single isomer, unassigned) [Example 63b] |
| 87 | CS(=O)(=O)N1CC[C@@H]([C@@H]2c3ccccc3-c3cncn32)[C@H](O)C1 (single isomer, unassigned) [Example 64b] |
| 2500 | CS(=O)(=O)N1CC[C@@H]([C@H]2c3ccccc3-c3cncn32)[C@H](O)C1 (single isomer, unassigned) [Example 64d] |
| 190 | CC1(C)COCC(C2c3ccccc3-c3cncn32)C1O (single isomer, unassigned) [Example 66b] |
| 4800 | CC1(C)COCC(C2c3ccccc3-c3cncn32)C1O (single isomer, unassigned) [Example 66c] |
| 2000 | CC1(C)COCC(C2c3ccccc3-c3cncn32)C1O (single isomer, unassigned) [Example 66d] |

| EC50 [nM] | SMILES |
| --- | --- |
| 160 | CC1(C)COCC(C2c3ccccc3-c3cncn32)C1O (single isomer, unassigned) [Example 66f] |
| 71 | CC1(C)COCC(C2c3ccccc3-c3cncn32)C1O (single isomer, unassigned) [Example 66g] |
| 1200 | OC1CC2(CCC2)C1C1c2ccccc2-c2cncn21 (single isomer, unassigned) [Example 67a] |
| > 25000 | OC1CC2(CCC2)C1C1c2ccccc2-c2cncn21 (single isomer, unassigned) [Example 67b] |
| 1100 | OC1CC2(CCC2)C1C1c2ccccc2-c2cncn21 (single isomer, unassigned) [Example 67c] |
| 240 | OC1CC2(CCC2)C1C1c2ccccc2-c2cncn21 (single isomer, unassigned) [Example 67d] |
| 44 | OC1CC2(CCC2)C1C1c2ccccc2-c2cncn21 (single isomer, unassigned) [Example 67e] |
| 46 | OC1CC2(CCC2)C1C1c2ccccc2-c2cncn21 (single isomer, unassigned) [Example 67f] |
| 2400 | OC1CC2(CCC2)C1C1c2ccccc2-c2cncn21 (single isomer, unassigned) [Example 67g] |
| 16000 | OC1CC2(CCC2)C1C1c2ccccc2-c2cncn21 (single isomer, unassigned) [Example 67h] |
| 7400 | OC1C(C2c3ccccc3-c3cncn32)CCC12CCOCC2 (single isomer, unassigned) [Example 68b] |
| > 25000 | OC1C(C2c3ccccc3-c3cncn32)CCC12CCOCC2 (single isomer, unassigned) [Example 68c] |
| > 25000 | OC1C(C2c3ccccc3-c3cncn32)CCC12CCOCC2 (single isomer, unassigned) [Example 68d] |
| 270 | OC1C(C2c3ccccc3-c3cncn32)CCC12CCOCC2 (single isomer, unassigned) [Example 68e] |
| 120 | OC1C(C2c3ccccc3-c3cncn32)CCC12CCOCC2 (single isomer, unassigned) [Example 68f] |
| > 25000 | OC1C(C2c3ccccc3-c3cncn32)CCC12CCOCC2 (single isomer, unassigned) [Example 68g] |
| > 25000 | OC1C(C2c3ccccc3-c3cncn32)CCC12CCOCC2 (single isomer, unassigned) [Example 68h] |
